These results are taken from patent US9573957B2 (Boehringer Ingelheim International GmbH, priority 2013, dated 2017).

One assay has as its target human LTA4 hydrolase (Homo sapiens (Human), UniProt P09960). The assay can be described thus: LTA4H Enzyme assay (peptidase, Arg-AMC cleavage). Type of assay: biochemical. The conditions noted are these: LTA4H Enzyme 1 nM, Arg-AMC substrate 50 μM, room temperature 1 h, fluorescence. The protocol: The compounds of the invention are assessed for the ability to interact with human LTA4 hydrolase in an enzymatic assay that measures the ability of the enzyme to cleave the peptide bond of arginyl-aminomethylcoumarin (Arg-AMC). LTA4H Enzyme (1 nM final), Arg-AMC substrate (50 μM final), and compound are combined in a reaction buffer (50 mM Tris-HCl (pH 7.5), 100 mM KCl, 0.5% bovine serum albumin) at room temperature for 1 h. The formation of product is assessed by measuring the fluorescence of aminomethylcoumarin product (excitation wavelength 380 nm/emission wavelength 460 nm).

Assay [1] relates to synthesis of LTB4 in human whole blood. Description: LTB4 production inhibition assay in human whole blood (HWB). In kind it is cell-based. The conditions noted are these: heparinized human whole blood, 15 min at 37° C., Calcimycin 20 μM 30 min, plasma LTB4 by HTRF. How it is done: The compounds of the invention are additionally tested in a human whole blood (HWB) assay to determine their ability to inhibit the synthesis of LTB4 in a cellular system. Compounds are combined with heparinized human whole blood and incubated for 15 minutes at 37° C. Calcimycin (20 μM final, prepared in phosphate-buffered saline, pH 7.4) is then added and the mixture is incubated for another 30 minutes at 37° C. The samples are centrifuged for 5 min at low speed (1500×g) and the plasma layer is removed. Plasma LTB4 concentrations are then measured using an antibody-based homogenous time-resolved fluorescence method (CisBio, Bedford, Mass.).
On the technique in general: In TR-FRET formats the signal depends on donor and acceptor labels being close together.

Sequence of human LTA4 hydrolase (P09960 whole entry): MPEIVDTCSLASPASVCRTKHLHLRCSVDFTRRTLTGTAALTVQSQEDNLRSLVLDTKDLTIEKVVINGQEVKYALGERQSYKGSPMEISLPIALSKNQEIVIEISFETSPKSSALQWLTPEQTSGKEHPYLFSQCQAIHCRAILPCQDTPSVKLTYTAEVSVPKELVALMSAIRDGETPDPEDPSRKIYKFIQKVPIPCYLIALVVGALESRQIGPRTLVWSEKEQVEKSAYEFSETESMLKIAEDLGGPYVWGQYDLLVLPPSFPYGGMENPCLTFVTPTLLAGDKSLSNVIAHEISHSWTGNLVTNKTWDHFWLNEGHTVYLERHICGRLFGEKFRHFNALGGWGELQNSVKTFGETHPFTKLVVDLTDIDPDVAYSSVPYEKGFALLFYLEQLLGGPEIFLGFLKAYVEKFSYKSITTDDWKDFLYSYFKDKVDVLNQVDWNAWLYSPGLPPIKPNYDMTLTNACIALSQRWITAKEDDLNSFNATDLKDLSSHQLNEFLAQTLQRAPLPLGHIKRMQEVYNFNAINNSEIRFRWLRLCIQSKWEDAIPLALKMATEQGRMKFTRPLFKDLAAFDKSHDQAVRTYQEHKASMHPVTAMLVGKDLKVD

As to `CC(C#N)C(=O)N1CCN(Cc2ccc3cc(Oc4ccc(-c5ccn[nH]5)cn4)ccc3n2)CC1` (stereo not shown) [Example 149, 2-Methyl-3-oxo-3-(4-{6-[5-(2H-pyrazol-3-yl)-pyridin-2-yloxy]-quinolin-2-ylmethyl}-piperazin-1-yl)-propionitrile], the IC50 against human LTA4 hydrolase amounted to 0.00047 µM; in assay [1], 0.2 µM.

Regarding `NC(=O)C1CN(Cc2ccc3cc(Oc4ccc(-c5ccn[nH]5)cn4)ccc3c2)C1` [Example 2, 1-{6-[5-(2H-Pyrazol-3-yl)-pyridin-2-yloxy]-naphthalen-2-ylmethyl}-azetidine-3-carboxylic acid amide], the results for the IC50 (against human LTA4 hydrolase; in assay [1]) were 0.00046 µM and 0.21 µM, respectively.

Take `O=C(CO)NC1CCN(Cc2ccc3cc(Oc4ccc(-c5ccn[nH]5)cn4)ccc3c2)CC1` [Example 9, 2-Hydroxy-N-(1-{6-[5-(2H-pyrazol-3-yl)-pyridin-2-yloxy]-naphthalen-2-ylmethyl}-piperidin-4-yl)-acetamide]: the results for the IC50 (against human LTA4 hydrolase; in assay [1]) were 0.0005 µM and 0.17 µM, respectively.

For the compound `CN(C(=O)CO)[C@@H]1CCN(Cc2ccc3cc(Oc4ccc(-c5ccn[nH]5)cn4)ccc3c2)C1` [Example 21, 2-Hydroxy-N-methyl-N-((R)-1-{6-[5-(2H-pyrazol-3-yl)-pyridin-2-yloxy]-naphthalen-2-ylmethyl}-pyrrolidin-3-yl)-acetamide], the IC50 stood at 0.00067 µM at human LTA4 hydrolase and 0.1 µM in assay [1].

With `CCCOCC(=O)N1CCN(Cc2ccc3cc(Oc4ccc(-c5ccn[nH]5)cn4)ccc3n2)CC1` [Example 144, 2-Propoxy-1-(4-{6-[5-(2H-pyrazol-3-yl)-pyridin-2-yloxy]-quinolin-2-ylmethyl}-piperazin-1-yl)-ethanone], the IC50 was determined as 0.0023 µM at human LTA4 hydrolase and 0.66 µM in assay [1].

Take `O=C(C1C2COCC21)N1CCN(Cc2ccc3cc(Oc4ccc(-c5ccn[nH]5)cn4)ccc3n2)CC1` (stereo not shown) [Example 136, (3-Oxa-bicyclo[3.1.0]hex-6-yl)-(4-{6-[5-(2H-pyrazol-3-yl)-pyridin-2-yloxy]-quinolin-2-ylmethyl}-piperazin-1-yl)-methanone]: the IC50 against human LTA4 hydrolase was 0.006 µM; in assay [1], 0.77 µM.

For `O=C(N1CCN(Cc2ccc3cc(Oc4ccc(-c5ccn[nH]5)cn4)ccc3n2)CC1)C1(O)CCC1` [Example 143, (1-Hydroxy-cyclobutyl)-(4-{6-[5-(2H-pyrazol-3-yl)-pyridin-2-yloxy]-quinolin-2-ylmethyl}-piperazin-1-yl)-methanone], the IC50 against human LTA4 hydrolase is 0.0018 µM; in assay [1], 0.58 µM.

Turning to `O=C1[C@@H](O)CCN1C1CCN(Cc2ccc3cc(Oc4ccc(-c5ccn[nH]5)cn4)ccc3n2)CC1` [Example 8, (S)-3-Hydroxy-1-(1-{6-[5-(2H-pyrazol-3-yl)-pyridin-2-yloxy]-quinolin-2-ylmethyl}-piperidin-4-yl)-pyrrolidin-2-one], the IC50 worked out at 0.00086 µM against human LTA4 hydrolase and 0.23 µM in assay [1].

As for `CC(C)(O)C(=O)N1CC2CCC(C1)N2Cc1ccc2cc(Oc3ccc(-c4ccn[nH]4)cn3)ccc2n1` [Example 58, 2-Hydroxy-2-methyl-1-(8-{6-[5-(2H-pyrazol-3-yl)-pyridin-2-yloxy]-quinolin-2-ylmethyl}-3,8-diaza-bicyclo[3.2.1]oct-3-yl)-propan-1-one], the IC50 on human LTA4 hydrolase stood at 0.00045 µM; in assay [1], 0.12 µM.

Consider `COCCCC(=O)N1CCN(Cc2ccc3cc(Oc4ccc(-c5ccn[nH]5)cn4)ccc3n2)CC1` [Example 142, 4-Methoxy-1-(4-{6-[5-(2H-pyrazol-3-yl)-pyridin-2-yloxy]-quinolin-2-ylmethyl}-piperazin-1-yl)-butan-1-one], for which the IC50 against human LTA4 hydrolase turned out to be 0.0025 µM; in assay [1], 0.93 µM.

As for `CN(C(=O)CO)[C@@H]1CCN(Cc2coc3cc(Oc4ccc(-c5ccn[nH]5)cn4)ccc23)C1` [Example 113, 2-Hydroxy-N-methyl-N-((R)-1-{6-[5-(2H-pyrazol-3-yl)-pyridin-2-yloxy]-benzofuran-3-ylmethyl}-pyrrolidin-3-yl)-acetamide], the IC50 against human LTA4 hydrolase is 0.00042 µM; in assay [1], 0.16 µM.

Regarding `O=C(CO)N1CCC2(CCN(Cc3coc4cc(Oc5ccc(-c6ccn[nH]6)cn5)ccc34)C2)C1` (stereo not shown) [Example 115, 2-Hydroxy-1-(7-{6-[5-(2H-pyrazol-3-yl)-pyridin-2-yloxy]-benzofuran-3-ylmethyl}-2,7-diaza-spiro[4.4]non-2-yl)-ethanone], the IC50 came out at 0.00043 µM against human LTA4 hydrolase and 0.12 µM in assay [1].

`C[C@H](O)C(=O)N1CC2CCC(C1)N2Cc1ccc2cc(Oc3ccc(-c4ccn[nH]4)cn3)ccc2n1` [Example 57, (S)-2-Hydroxy-1-(8-{6-[5-(2H-pyrazol-3-yl)-pyridin-2-yloxy]-quinolin-2-ylmethyl}-3,8-diaza-bicyclo[3.2.1]oct-3-yl)-propan-1-one]: the IC50 against human LTA4 hydrolase turned out to be 0.00043 µM; in assay [1] it was 0.098 µM.

Turning to `CC(=O)NC1CN(Cc2ccc3cc(Oc4ccc(-c5ccn[nH]5)cn4)ccc3c2)C1` [Example 3, N-(1-{6-[5-(2H-Pyrazol-3-yl)-pyridin-2-yloxy]-naphthalen-2-ylmethyl}-azetidin-3-yl)-acetamide], the results for the IC50 (against human LTA4 hydrolase; in assay [1]) were 0.0005 µM and 0.2 µM, respectively.

Regarding `O[C@H]1CCCN(Cc2ccc3cc(Oc4ccc(-c5ccn[nH]5)cn4)ccc3c2)C1` [Example 14, (S)-1-{6-[5-(2H-Pyrazol-3-yl)-pyridin-2-yloxy]-naphthalen-2-ylmethyl}-piperidin-3-ol], the values for the IC50 (at human LTA4 hydrolase; in assay [1]) were 0.0012 µM and 0.19 µM, respectively.

`CO[C@@H](C)C(=O)N1CCN(CCC2COc3cc(Oc4ccc(-c5ccn[nH]5)cn4)ccc32)CC1` (stereo partly drawn) [Example 88, (S)-2-Methoxy-1-[4-(2-{6-[5-(2H-pyrazol-3-yl)-pyridin-2-yloxy]-2,3-dihydro-benzofuran-3-yl}-ethyl)-piperazin-1-yl]-propan-1-one]: the IC50 against human LTA4 hydrolase came to 0.0012 µM; in assay [1], 0.41 µM.

Regarding `CC(=O)N1CCCN(Cc2coc3cc(Oc4ccc(-c5ccn[nH]5)cn4)ccc23)CC1` [Example 97, 1-(4-{6-[5-(2H-Pyrazol-3-yl)-pyridin-2-yloxy]-benzofuran-3-ylmethyl}-[1,4]diazepan-1-yl)-ethanone], the IC50 on human LTA4 hydrolase came to 0.00058 µM; in assay [1], 0.21 µM.

Consider `C[C@H](O)CC(=O)N1CCN(Cc2ccc3cc(Oc4ccc(-c5ccn[nH]5)cn4)ccc3n2)CC1` [Example 117, (S)-3-Hydroxy-1-(4-{6-[5-(2H-pyrazol-3-yl)-pyridin-2-yloxy]-quinolin-2-ylmethyl}-piperazin-1-yl)-butan-1-one], for which the values for the IC50 (on human LTA4 hydrolase; in assay [1]) were 0.0037 µM and 0.67 µM, respectively.

For `C[C@@H](O)C(=O)N1CCN(CCc2coc3cc(Oc4ccc(-c5ccn[nH]5)cn4)ccc23)CC1` [Example 92, (R)-2-Hydroxy-1-[4-(2-{6-[5-(2H-pyrazol-3-yl)-pyridin-2-yloxy]-benzofuran-3-yl}-ethyl)-piperazin-1-yl]-propan-1-one], the figures for the half-maximal inhibitory concentration (IC50) (on human LTA4 hydrolase; in assay [1]) were 0.0011 µM and 0.47 µM, respectively.

Take `O=C(N1CCN(CCc2coc3cc(Oc4ccc(-c5ccn[nH]5)cn4)ccc23)CC1)C1(O)CC1` [Example 93, (1-Hydroxy-cyclopropyl)-[4-(2-{6-[5-(2H-pyrazol-3-yl)-pyridin-2-yloxy]-benzofuran-3-yl}-ethyl)-piperazin-1-yl]-methanone]: the IC50 on human LTA4 hydrolase worked out at 0.00091 µM; in assay [1], 0.53 µM.

Turning to `CN(C)C(=O)C1CCN(Cc2ccc3cc(Oc4ncc(-c5ccn[nH]5)cn4)ccc3c2)CC1` [Example 38, 1-{6-[5-(2H-Pyrazol-3-yl)-pyrimidin-2-yloxy]-naphthalen-2-ylmethyl}-piperidine-4-carboxylic acid dimethylamide], the values for the IC50 (on human LTA4 hydrolase; in assay [1]) were 0.0012 µM and 0.18 µM, respectively.

In the case of `CC1(O)CN(Cc2ccc3cc(Oc4ncc(-c5ccn[nH]5)cn4)ccc3c2)C1` [Example 47, 3-Methyl-1-{6-[5-(2H-pyrazol-3-yl)-pyrimidin-2-yloxy]-naphthalen-2-ylmethyl}-azetidin-3-ol], the figures for the IC50 (against human LTA4 hydrolase; in assay [1]) were 0.0019 µM and 0.21 µM, respectively.

Turning to `CC(=O)N1CCN(C(=O)c2coc3cc(Oc4ccc(-c5ccn[nH]5)cn4)ccc23)CC1` [Example 112, 1-(4-{6-[5-(2H-Pyrazol-3-yl)-pyridin-2-yloxy]-benzofuran-3-carbonyl}-piperazin-1-yl)-ethanone], the IC50 at human LTA4 hydrolase stood at 0.0019 µM; in assay [1] it was 0.35 µM.

On to `CC(C)(O)C(=O)N1CCN(CCC2COc3cc(Oc4ccc(-c5ccn[nH]5)cn4)ccc32)CC1` (stereo not shown) [Example 81, 2-Hydroxy-2-methyl-1-[4-(2-{6-[5-(2H-pyrazol-3-yl)-pyridin-2-yloxy]-2,3-dihydro-benzofuran-3-yl}-ethyl)-piperazin-1-yl]-propan-1-one], for which the IC50 worked out at 0.0022 µM against human LTA4 hydrolase and 0.58 µM in assay [1].

In the case of `CN(C(=O)CO)[C@H]1CCN(Cc2ccc3cc(Oc4ccc(-c5ccn[nH]5)cn4)ccc3c2)C1` [Example 20, 2-Hydroxy-N-methyl-N-((S)-1-{6-[5-(2H-pyrazol-3-yl)-pyridin-2-yloxy]-naphthalen-2-ylmethyl}-pyrrolidin-3-yl)-acetamide], the figures for the IC50 (on human LTA4 hydrolase; in assay [1]) were 0.00076 µM and 0.15 µM, respectively.

Regarding `CC(=O)N1CC(CN(C)Cc2ccc3cc(Oc4ncc(-c5ccn[nH]5)cn4)ccc3c2)C1` [Example 32, 1-{3-[(Methyl-{6-[5-(2H-pyrazol-3-yl)-pyrimidin-2-yloxy]-naphthalen-2-ylmethyl}-amino)-methyl]-azetidin-1-yl}-ethanone], the results for the IC50 (against human LTA4 hydrolase; in assay [1]) were 0.0011 µM and 0.18 µM, respectively.

What is called IC50 is the concentration needed to halve the response being measured.
